Results on two compounds are retold here after patent US20230405552A1, “Super Absorbent Polymer and Preparation Method Thereof” (LG Chem, Ltd., priority 2021, published 2023).

The subject of assay [1] is Proteus mirabilis (P. mirabilis, ATCC 29906) standard strain. Kind of assay: Antibacterial property of polymerizable antibacterial monomer against Proteus mirabilis (absorbance at 600 nm). Type of assay: cell-based. The settings on record: 18 hours at 35° C.; for Optical density: diluted to 1/5, 600 nm. The protocol:
The monomer was put in a 50 ml conical tube according to the content of Table 1 below, and then 25 ml of a nutrient broth (Becton Dickinson) solution, to which 3000±300 CFU/ml of E. coli (ATCC 25922) standard strain was inoculated, was injected. After culturing for 18 hours in a shaking incubator (Vision Scientific, VS-37SIF) at 35° C., the culture solution was diluted to ⅕ concentration using 1× PBS (Gibco). The absorbance of the diluted solution was measured at a wavelength of 600 nm using a UV-Vis spectrophotometer. At this time, the absorbance measured after culturing the nutrient broth solution to which the bacteria was inoculated without the addition of the monomer was compared to the absorbance of the sample to which the monomer was added, and the degree of growth of the bacteria was examined. The bacterial growth-inhibitory rate was calculated according to the following Equation 1, and the results are shown in Table 1 below. To examine the antibacterial properties of the monomer 2-(tert-butylamino)ethyl methacrylate included in Examples and the monomer 2-(dimethylamino)ethyl methacrylate against Proteus mirabilis, the bacterial growth-inhibitory rate (%) against Proteus mirabilis (P. mirabilis) was calculated in the same manner as in the antibacterial property evaluation for E. coli, except that a nutrient broth solution, to which 3000±300 CFU/ml of Proteus mirabilis (P. mirabilis, ATCC 29906) standard strain was inoculated instead of E. coli (ATCC 25922), was used. In calculating the bacteriostatic reduction rate using Equation 1, CReference represents CFU of bacteria after culturing with the monomer of Comparative Experimental Example 2-1 without the antibacterial material.

Assay [2] has as its system E. coli (ATCC 25922) standard strain. Kind of assay: Antibacterial property of polymerizable antibacterial monomer against E. coli (absorbance at 600 nm). Type of assay: cell-based, Escherichia coli. The settings on record: 18 hours at 35° C.; for Optical density: diluted to 1/5, 600 nm. The protocol: The monomer was put in a 50 ml conical tube according to the content of Table 1 below, and then 25 ml of a nutrient broth (Becton Dickinson) solution, to which 3000±300 CFU/ml of E. coli (ATCC 25922) standard strain was inoculated, was injected. After culturing for 18 hours in a shaking incubator (Vision Scientific, VS-37SIF) at 35° C., the culture solution was diluted to ⅕ concentration using 1× PBS (Gibco). The absorbance of the diluted solution was measured at a wavelength of 600 nm using a UV-Vis spectrophotometer. At this time, the absorbance measured after culturing the nutrient broth solution to which the bacteria was inoculated without the addition of the monomer was compared to the absorbance of the sample to which the monomer was added, and the degree of growth of the bacteria was examined. The bacterial growth-inhibitory rate was calculated according to the following Equation 1, and the results are shown in Table 1 below. Bacterial growth-inhibitory rate(%)=[(ODReference−ODsample)/ODReference]*100 [Equation 1] in Equation, ODReference represents absorbance of the culture medium of Comparative Experimental Example 1-1 without the antibacterial material, and ODsample represents absorbance of the culture medium with the antibacterial material.

Where [3] appears, read: 0.03 g monomer in 25 ml nutrient broth.
The mark [4] stands for this setting: 0.05 g monomer in 25 ml nutrient broth.
The mark [5] stands for this setting: 0.07 g monomer in 25 ml nutrient broth.

Molecules are shown by their SMILES.

As to `C=C(C)C(=O)OCCN(C)C` [2-(dimethylamino)ethyl methacrylate], the “Bacterial growth-inhibitory rate (%)” value in assay [1] (setting [3]) was 3.37%; in assay [1] (setting [4]), 20.22%; in assay [1] (setting [5]) it was 67.98%; in assay [2] (setting [3]), 0.00%; in assay [2] (setting [4]), 3.67%; in assay [2] (setting [5]), 23.98%. For the same compound, the Optical density in assay [1] (setting [3]) worked out at 0.172; in assay [1] (setting [4]), 0.142; in assay [1] (setting [5]), 0.057; in assay [2] (setting [3]), 0.196; in assay [2] (setting [4]), 0.189; in assay [2] (setting [5]), 0.149.

Take `C=C(C)C(=O)OCCNC(C)(C)C` [2-(tert-butylamino)ethyl methacrylate]: the “Bacterial growth-inhibitory rate (%)” value is 19.10% in assay [1] (setting [3]); 43.82% in assay [1] (setting [4]); 94.94% in assay [1] (setting [5]); 5.61% in assay [2] (setting [3]); 64.29% in assay [2] (setting [4]); 95.41% in assay [2] (setting [5]). Further, the Optical density is listed as 0.144 in assay [1] (setting [3]); 0.100 in assay [1] (setting [4]); 0.009 in assay [1] (setting [5]); 0.185 in assay [2] (setting [3]); 0.070 in assay [2] (setting [4]); 0.009 in assay [2] (setting [5]).
